# From paper PMC10835127, “Viruses traverse the human proteome through peptide interfaces that can be biomimetically leveraged for drug discovery” (Proceedings of the National Academy of Sciences of the …, 2024)
# Read-outs that look alike come from different tables or passages of the source. No end group written: not given here.
# Experiments:
# [1] = tested on: HIV1 strain NL4-3; type: cell-based; settings: normalized mean of HIV1 replication readout
# [2] = tested on: HCV replicon; type: cell-based; settings: for HCV Norm MEAN: normalized mean of HCV replicon readout
# [3] = tested on: F. novicida (strain U112); type: cell-based
# [4] = tested on: influenza A H1N1 virus; settings: 48 hr post-treatment, A549
# [5] = tested on: EBV; settings: for EBV Norm MEAN: normalized mean of EBV replication readout
Substance,HIV1 Norm MEAN [1],HCV Norm MEAN [2],Francisella novicida Norm AUC [3],Neuraminidase activity normalized to vehicle ([4]; 200 µM peptide),"Neuraminidase activity normalized to vehicle ([4]; 0,823 µM peptide)","Neuraminidase activity normalized to vehicle ([4]; 22,2 µM peptide)","Neuraminidase activity normalized to vehicle ([4]; 2,4691 µM peptide)","Neuraminidase activity normalized to vehicle ([4]; 7,4074 µM peptide)","Neuraminidase activity normalized to vehicle ([4]; 66,6667 µM peptide)",EBV Norm MEAN [5],HIV1 Norm MEAN ([1]; peptide screen),HCV Norm MEAN ([2]; peptide screen),EBV Norm MEAN ([5]; peptide screen),inhibition of PI incorporation in F. novicida infected BMDMs (in words) [3],"activity in HCV screen (in words) ([2]; 20 µM peptide, Huh7, replicon luciferase)",Francisella novicida Norm AUC ([3]; normalized area under the curve),"inhibition of EBV late gene reporter signal ([5]; 48 h, 20 µM) [%]"
IQIGNHNAM [CPEP67],4.672,0.7713,0.7313,"0,0404","0,9632","0,5849","0,8279","0,768","0,4017",1.399,–,–,–,–,–,–,–
YFADLLI [CPEP50],1.681,0.09464,0.9176,"0,2471","0,883","0,8095","0,771","0,9007","0,7183",1.15,–,–,–,–,–,–,–
NKVGSLQYLALAALI [CPEP60],–,–,1.045,"0,117","0,8991","0,7636","1,0157","0,7801","0,247",–,4.7165,1.268,0.706,–,–,–,–
TIESEV [CPEP59],0.5804,0.1611,0.4462,"1,1965","1,1044","1,0974","1,0801","1,0995","1,0953",1.967,–,–,–,one of the most potent virus-derived peptides to inhibit PI incorporation,–,–,–
MAGRSGDSDEELIR [CPEP91],–,–,1.031,"0,8049","0,8065","0,8658","0,8956","0,8592","0,8689",–,0.2767,0.7752,0.5729,–,–,–,–
CPEP127: peptide of the viral peptide library; sequence page not shown (LVKPTVYVYSR),1.624,0.6257,0.4703,"0,2557","0,9001","0,8705","1,007","0,8577","0,9535",0.673,–,–,–,–,–,–,–
SAPCLLKLSTTLLCLEI [CPEP124],–,–,0.6911,"0,1059","1,0611","0,6181","0,9657","1,0354","0,1507",–,14.9843,1.253,0.5543,–,–,–,–
TYGTC [CPEP97],0.8497,0.1345,0.4338,"0,8478","0,83","0,836","0,6842","0,8009","0,8711",1.147,–,–,–,–,–,–,–
LRKRRKRL [CPEP145],1.45,0.1172,1.33,"0,7911","0,8361","0,839","0,7253","0,7634","0,9146",2.86,–,–,–,–,inhibition of RNA,–,–
AAAVAFL [CPEP117],0.6808,0.1615,0.9738,"0,72","0,8345","0,8782","0,8234","0,8773","0,8792",1.118,–,–,–,–,–,–,–
SEWQRDQFLSQVK [CPEP95],0.5103,0.2824,–,"0,9927","0,9256","0,9538","0,9776","0,9237","1,0019",0.3991,–,–,–,–,–,1.114,60
KKTKSLP [CPEP75],0.7985,0.2042,1.06,"0,6614","0,8942","0,8062","0,8135","0,8547","0,7577",0.414,–,–,–,–,–,–,–
